Earlier results as cited in paper PMC9175271, “Live-cell microscopy or fluorescence anisotropy with budded baculoviruses—which way to go with measuring ligand binding to M4 muscarinic receptors?” (Open Biology, 2022).

Molecular target: M4 receptor
Details: mean of literature values, per ligand as in column ref.; ref [50], [63], [74]–[89]

For `CN1[C@@H]2C[C@@H](OC(=O)[C@H](CO)c3ccccc3)C[C@H]1[C@@H]1O[C@@H]12` [scopolamine], the “pKi ± s.e.m. (radioligand)” value is given as 9.28 ± 0.19.
